Data as given in ChEMBL document CHEMBL1201862, “PubChem BioAssay data set” (2004).
One block for each compound: values may come before it. Activity calls are given as the source filed them.

Experiments:
[1] = target: Sphingosine 1-phosphate receptor 1 (Homo sapiens, UniProt P21453); experiment: Fluorescence-based counterscreen assay for S1P4 agonists: Cell-based dose response high throughput screening assay to identify agonists of the Sphingosine 1-Phosphate Receptor 1 (S1P1). [Related pubchem assays (depositor defined):AID1509, AID1523, AID1801, AID463107, AID463118, AID463119, AID463122, AID463123, AID463129, AID463225, AID504400, AID504460]; assay type: functional
[2] = target: Sphingosine 1-phosphate receptor 4 (Homo sapiens, UniProt O95977); experiment: Fluorescence dose response cell-based high throughput screening assay for agonists of the Sphingosine 1-Phosphate Receptor 4 (S1P4). [Related pubchem assays: 1509 (Primary screen.), 1523 (Confirmation screen in triplicates.)]; assay type: functional
[3] = target: T1, E3 ubiquitin-protein ligase XIAP (Homo sapiens, UniProt P98170); experiment: SAR analysis of Antagonists of IAP-family anti-apoptotic proteins. [Related pubchem assays (depositor defined):AID1018, AID1449, AID1513, AID1514, AID1638]
[4] = target: T1, E3 ubiquitin-protein ligase XIAP; experiment: SAR analysis of Antagonists of XIAP-Bir3 domain of IAP-family anti-apoptotic proteins. [Related pubchem assays (depositor defined):AID1018, AID1449, AID1513, AID1514, AID1638]
Cannabinoid receptor 2 [5] = target: T2, Cannabinoid receptor 2 (Homo sapiens, UniProt P34972); experiment: SAR analysis of agonists of the Cannabinoid Receptor 2 using an Image-Based Assay. [Related pubchem assays (depositor defined):AID2013, AID2026]; assay type: functional
Cannabinoid receptor 2 [6] = target: T2, Cannabinoid receptor 2; experiment: SAR analysis of antagonists of the Cannabinoid Receptor 2 using an Image-Based Assay. [Related pubchem assays (depositor defined):AID2013, AID2026]; assay type: functional
[7] = target: T3, G-protein coupled receptor 55 (Homo sapiens, UniProt Q9Y2T6); experiment: blockade of LPI-induced GPR55 arrestin translocation – imaging, U2OS, beta-arrestin-GFP, LPI agonist, set 2, SAR follow-up (AID 2820); assay type: functional
[8] = target: T4, G-protein coupled receptor 35 (Homo sapiens, UniProt Q9HC97); experiment: SAR analysis of Agonists of the GPR35 Receptor using an Image-Based Assay - Set 2. [Related pubchem assays (depositor defined):AID2013, AID2026]; assay type: functional
[9] = target: T4, G-protein coupled receptor 35; experiment: SAR analysis of Antagonists of the GPR35 Receptor using an Image-Based Assay - Set 3. [Related pubchem assays (depositor defined):AID2013, AID2026]; assay type: functional
[10] = target: T3, G-protein coupled receptor 55; experiment: inhibition of LPI-stimulated GPR55 beta-arrestin translocation – imaging, U2OS, beta-arrestin-GFP, LPI agonist, primary screen (AID 2013); assay type: functional;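 also: antagonist potency measured as reduced agonist-driven arrestin aggregation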
Cannabinoid receptor 1 [11] = target: T5, Cannabinoid receptor 1 (Homo sapiens, UniProt P21554); experiment: SAR analysis of agonists of the Cannabinoid Receptor 1 using an Image-Based Assay - Set 2. [Related pubchem assays (depositor defined):AID2013, AID2026]; assay type: functional
Cannabinoid receptor 1 [12] = target: T5, Cannabinoid receptor 1; experiment: SAR analysis of antagonists of the Cannabinoid Receptor 1 using an Image-Based Assay - Set 2. [Related pubchem assays (depositor defined):AID2013, AID2026]; assay type: functional
[13] = viability of HCT116 lacking mutant beta-catenin – cell-based, human colon tumor, dose response (AID 1045); assay type: functional;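 also: HCT116 colon tumor cells with beta catenin knocked out; cells exposed to compound for 60 hours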
Estrogen receptor = target: T6, Estrogen receptor (Homo sapiens, UniProt P03372);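 also: potency for inhibiting coactivator peptide recruitment to the receptor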
T6 sequence (P03372 whole entry): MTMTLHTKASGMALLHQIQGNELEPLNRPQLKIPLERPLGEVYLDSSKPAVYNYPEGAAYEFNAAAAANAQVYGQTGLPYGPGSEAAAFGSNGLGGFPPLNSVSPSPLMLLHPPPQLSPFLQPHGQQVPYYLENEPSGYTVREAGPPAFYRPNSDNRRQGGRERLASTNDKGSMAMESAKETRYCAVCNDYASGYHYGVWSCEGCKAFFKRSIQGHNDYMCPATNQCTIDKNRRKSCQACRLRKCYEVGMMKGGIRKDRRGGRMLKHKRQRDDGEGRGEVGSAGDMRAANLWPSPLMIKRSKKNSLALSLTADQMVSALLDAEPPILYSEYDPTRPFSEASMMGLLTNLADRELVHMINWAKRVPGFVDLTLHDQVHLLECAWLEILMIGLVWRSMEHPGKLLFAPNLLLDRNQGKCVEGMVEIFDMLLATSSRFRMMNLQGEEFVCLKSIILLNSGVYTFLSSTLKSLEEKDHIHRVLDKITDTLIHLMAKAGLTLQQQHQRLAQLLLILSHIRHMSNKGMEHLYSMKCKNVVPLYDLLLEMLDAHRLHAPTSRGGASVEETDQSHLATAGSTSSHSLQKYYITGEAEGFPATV

[14] = Trypanosoma cruzi growth suppression in host cells – NIH3T3 host cells, beta-gal luminescence, confirmation (AID 2044); assay type: functional, cell-based;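 also: intracellular parasites grown in NIH/3T3 mouse fibroblasts as host cells; luminescent beta-galactosidase reporter signal from transgenic T. cruzi replicating inside host cells; inhibitors lower the luminescence signal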
[15] = target: T7, Carboxy-terminal domain RNA polymerase II polypeptide A small phosphatase 1 (Homo sapiens, UniProt Q9GZU7); experiment: CTDSP1 inhibitors, concentration-response, biochemical, absorbance readout, ultra-high-throughput screen actives (AID 540297); assay type: functional
T7 sequence (Q9GZU7 whole entry): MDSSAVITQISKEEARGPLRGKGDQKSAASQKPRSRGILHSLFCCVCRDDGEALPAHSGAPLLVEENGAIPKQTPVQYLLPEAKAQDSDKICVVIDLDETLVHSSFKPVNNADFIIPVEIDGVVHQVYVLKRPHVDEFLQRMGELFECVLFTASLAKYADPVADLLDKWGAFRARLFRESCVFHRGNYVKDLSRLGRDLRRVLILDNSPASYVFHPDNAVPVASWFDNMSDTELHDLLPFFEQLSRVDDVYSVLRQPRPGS

[16] = viability of PTEN-deleted HCT116 cells – cell-based, HCT116 PTEN knockout, dose response (AID 1047); assay type: functional;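 also: HCT116 colon tumor cells with PTEN knocked out; cells exposed to compound for 60 hours before readout; potency for loss of cell viability measured by luminescence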
[17] = NIH3T3 cell viability loss – ATP luminescence, mouse fibroblasts, counter-screen, dose response (AID 2010); assay type: functional, cell-based;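 also: cells exposed to compound for about 90 hours before reading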
Coagulation factor XII = target: T8, Coagulation factor XII (Homo sapiens, UniProt P00748); experiment: Factor XIIa Dose Response Confirmation from Single Well HTS. [Related pubchem assays (depositor defined):AID701]; assay type: functional
T8 sequence (P00748 whole entry): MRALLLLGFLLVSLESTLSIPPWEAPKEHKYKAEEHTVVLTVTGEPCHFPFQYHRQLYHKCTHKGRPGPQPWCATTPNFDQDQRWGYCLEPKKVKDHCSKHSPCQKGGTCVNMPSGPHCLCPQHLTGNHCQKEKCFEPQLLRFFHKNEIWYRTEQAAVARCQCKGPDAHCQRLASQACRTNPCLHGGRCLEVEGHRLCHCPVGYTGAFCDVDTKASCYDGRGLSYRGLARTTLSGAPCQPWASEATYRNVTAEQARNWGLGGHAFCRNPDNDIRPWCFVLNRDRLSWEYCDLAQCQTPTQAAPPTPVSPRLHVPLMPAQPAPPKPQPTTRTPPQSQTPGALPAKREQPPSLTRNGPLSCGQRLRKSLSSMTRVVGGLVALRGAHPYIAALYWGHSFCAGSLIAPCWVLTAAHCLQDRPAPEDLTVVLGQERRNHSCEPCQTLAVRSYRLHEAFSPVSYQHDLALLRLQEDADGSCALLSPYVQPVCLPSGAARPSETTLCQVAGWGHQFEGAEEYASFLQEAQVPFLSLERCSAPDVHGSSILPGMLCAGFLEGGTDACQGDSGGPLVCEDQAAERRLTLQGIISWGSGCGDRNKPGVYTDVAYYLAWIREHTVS

[18] = target: T9, Kappa-type opioid receptor (Homo sapiens, UniProt P41145); experiment: SAR analysis of small molecule antagonists of the kappa opioid receptor via a luminescent beta-arrestin assay - Set 4. [Related pubchem assays (depositor defined):AID1777, AID1778, AID1785, AID1786, AID1966, AID2133, AID2136, AID2285]; assay type: functional
[19] = target: T9, Kappa-type opioid receptor; experiment: SAR analysis of small molecule antagonists of the kappa opioid receptor via a luminescent beta-arrestin assay - Set 5. [Related pubchem assays (depositor defined):AID1778, AID1785]; assay type: functional
[20] = target: T4, G-protein coupled receptor 35; experiment: SAR analysis of Antagonists of the GPR35 Receptor using an Image-Based Assay - Set 4. [Related pubchem assays (depositor defined):[…]]; assay type: functional
Cannabinoid receptor 2 [21] = target: T2, Cannabinoid receptor 2; experiment: SAR analysis of agonists of the Cannabinoid Receptor 2 using an Image-Based Assay - Set 2. [Related pubchem assays (depositor defined):AID1961, AID1965]; assay type: functional
[22] = target: T4, G-protein coupled receptor 35; experiment: SAR analysis of Agonists of the GPR35 Receptor using an Image-Based Assay - Set 3. [Related pubchem assays (depositor defined):AID1961, AID1965]; assay type: functional
Cannabinoid receptor 1 [23] = target: T5, Cannabinoid receptor 1; experiment: SAR analysis of agonists of the Cannabinoid Receptor 1 using an Image-Based Assay - Set 3. [Related pubchem assays (depositor defined):AID1961, AID1965]; assay type: functional
[24] = target: T3, G-protein coupled receptor 55; experiment: SAR analysis of selective Agonists of GPR55 using an Image-Based Assay - Set 2. [Related pubchem assays (depositor defined):AID1961, AID1965]; assay type: functional
Cannabinoid receptor 1 [25] = target: T5, Cannabinoid receptor 1; experiment: SAR analysis of antagonists of the Cannabinoid Receptor 1 using an Image-Based Assay - Set 3. [Related pubchem assays (depositor defined):AID1961, AID1965]; assay type: functional
Cannabinoid receptor 2 [26] = target: T2, Cannabinoid receptor 2; experiment: SAR analysis of antagonists of the Cannabinoid Receptor 2 using an Image-Based Assay - Set 2. [Related pubchem assays (depositor defined):AID1961, AID1965]; assay type: functional
[27] = target: Delta-type opioid receptor (Homo sapiens, UniProt P41143); experiment: SAR Analysis of Agonists of the DOR Receptor using an Image-Based Assay - Set 3. [Related pubchem assays (depositor defined):AID1777, AID1786]; assay type: functional
[28] = target: T9, Kappa-type opioid receptor; experiment: SAR analysis of small molecule agonists of the kappa opioid receptor via a luminescent beta-arrestin assay - Set 3. [Related pubchem assays (depositor defined):AID1777, AID1785, AID1786, AID1966, AID2133, AID2136, AID2284, AID2500]; assay type: functional
Mu-type opioid receptor = Mu-type opioid receptor (Homo sapiens, UniProt P35372); experiment: SAR Analysis of Agonists of the MOR Receptor using an Image-Based Assay - Set 3. [Related pubchem assays (depositor defined):AID1777, AID1785, AID1786, AID1966, AID2133, AID2136, AID2284, AID2285, AID2352]; assay type: functional
[29] = target: T9, Kappa-type opioid receptor; experiment: kappa opioid receptor activation by imaging – image-based, set 3, SAR follow-up (AID 488833); assay type: functional
[30] = Luminescence Cell-Based Dose Retest to Confirm Inhibitors of Cancer Stem Cells. [Related pubchem assays (depositor defined):AID2717, AID2721]; assay type: functional; details: Homo sapiens
[31] = target: DNA damage-inducible transcript 3 protein (Mus musculus, UniProt P35639); assay type: functional, Cricetulus griseus
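For AC50 in this document: cells exposed to compound for roughly 70 hours or longer before luminescence read.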

T5 sequence (P21554 whole entry): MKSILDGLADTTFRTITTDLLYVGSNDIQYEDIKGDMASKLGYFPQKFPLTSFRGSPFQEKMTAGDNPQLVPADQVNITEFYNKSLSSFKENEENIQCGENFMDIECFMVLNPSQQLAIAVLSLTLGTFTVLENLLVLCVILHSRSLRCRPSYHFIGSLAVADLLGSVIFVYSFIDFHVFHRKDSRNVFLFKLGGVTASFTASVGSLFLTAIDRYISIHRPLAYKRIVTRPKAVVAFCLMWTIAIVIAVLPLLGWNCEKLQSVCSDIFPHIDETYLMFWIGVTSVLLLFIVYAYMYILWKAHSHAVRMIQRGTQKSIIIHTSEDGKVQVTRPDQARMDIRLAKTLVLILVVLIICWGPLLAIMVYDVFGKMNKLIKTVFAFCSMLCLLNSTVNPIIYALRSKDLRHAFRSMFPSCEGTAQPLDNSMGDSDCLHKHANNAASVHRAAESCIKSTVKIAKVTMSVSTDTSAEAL
T2 sequence (P34972 whole entry): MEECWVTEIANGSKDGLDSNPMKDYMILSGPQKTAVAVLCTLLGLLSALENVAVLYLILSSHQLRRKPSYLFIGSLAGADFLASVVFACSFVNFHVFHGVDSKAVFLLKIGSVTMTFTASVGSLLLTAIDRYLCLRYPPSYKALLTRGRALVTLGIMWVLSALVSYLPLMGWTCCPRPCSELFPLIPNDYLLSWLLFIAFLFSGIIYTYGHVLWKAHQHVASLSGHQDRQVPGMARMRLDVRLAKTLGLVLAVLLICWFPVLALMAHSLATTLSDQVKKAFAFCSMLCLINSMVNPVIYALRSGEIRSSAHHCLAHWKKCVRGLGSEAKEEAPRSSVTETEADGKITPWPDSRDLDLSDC
T3 sequence (Q9Y2T6 whole entry): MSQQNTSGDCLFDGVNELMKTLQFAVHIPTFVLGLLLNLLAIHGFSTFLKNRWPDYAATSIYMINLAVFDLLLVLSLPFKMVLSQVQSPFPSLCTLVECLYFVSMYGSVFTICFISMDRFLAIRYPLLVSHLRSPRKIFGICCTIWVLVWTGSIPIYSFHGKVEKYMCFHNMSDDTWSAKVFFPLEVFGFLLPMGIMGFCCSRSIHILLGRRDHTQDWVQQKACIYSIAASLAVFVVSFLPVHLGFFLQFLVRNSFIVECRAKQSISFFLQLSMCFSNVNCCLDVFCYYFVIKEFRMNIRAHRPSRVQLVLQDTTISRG
T4 sequence (Q9HC97 whole entry): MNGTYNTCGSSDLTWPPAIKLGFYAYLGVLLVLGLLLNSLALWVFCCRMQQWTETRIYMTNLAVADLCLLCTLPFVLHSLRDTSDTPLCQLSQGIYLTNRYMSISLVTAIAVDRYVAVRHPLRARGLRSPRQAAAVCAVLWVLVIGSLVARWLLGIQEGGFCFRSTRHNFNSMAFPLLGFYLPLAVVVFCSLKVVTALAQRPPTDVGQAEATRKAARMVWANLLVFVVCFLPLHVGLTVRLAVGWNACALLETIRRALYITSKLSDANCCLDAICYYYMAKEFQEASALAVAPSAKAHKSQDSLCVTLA
T9 sequence (P41145 whole entry): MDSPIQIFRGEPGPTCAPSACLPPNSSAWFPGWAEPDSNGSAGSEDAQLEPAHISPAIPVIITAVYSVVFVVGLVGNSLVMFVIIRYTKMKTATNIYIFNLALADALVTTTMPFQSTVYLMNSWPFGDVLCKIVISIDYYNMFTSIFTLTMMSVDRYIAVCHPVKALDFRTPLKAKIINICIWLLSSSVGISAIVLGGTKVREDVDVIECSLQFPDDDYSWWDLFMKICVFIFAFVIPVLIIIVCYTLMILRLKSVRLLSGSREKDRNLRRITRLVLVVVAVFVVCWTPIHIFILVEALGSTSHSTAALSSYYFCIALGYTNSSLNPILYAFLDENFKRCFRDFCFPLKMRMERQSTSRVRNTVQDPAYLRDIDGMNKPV
T1 sequence (P98170 whole entry, the tested form may be a part): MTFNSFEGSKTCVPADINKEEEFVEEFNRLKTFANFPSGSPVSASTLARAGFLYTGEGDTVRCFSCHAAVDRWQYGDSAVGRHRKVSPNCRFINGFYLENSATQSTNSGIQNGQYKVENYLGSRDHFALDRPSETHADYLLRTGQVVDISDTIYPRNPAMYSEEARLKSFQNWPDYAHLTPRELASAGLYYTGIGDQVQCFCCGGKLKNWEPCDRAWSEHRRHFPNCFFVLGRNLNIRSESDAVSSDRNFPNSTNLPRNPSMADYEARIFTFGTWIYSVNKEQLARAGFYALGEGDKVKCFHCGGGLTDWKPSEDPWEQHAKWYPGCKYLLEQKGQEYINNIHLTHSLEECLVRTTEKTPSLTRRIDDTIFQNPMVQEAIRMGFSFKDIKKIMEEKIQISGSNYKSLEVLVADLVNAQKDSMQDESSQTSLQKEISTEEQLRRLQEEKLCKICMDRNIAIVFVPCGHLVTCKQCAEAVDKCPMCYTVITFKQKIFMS
Chain of Mu-type opioid receptor (P35372 whole entry): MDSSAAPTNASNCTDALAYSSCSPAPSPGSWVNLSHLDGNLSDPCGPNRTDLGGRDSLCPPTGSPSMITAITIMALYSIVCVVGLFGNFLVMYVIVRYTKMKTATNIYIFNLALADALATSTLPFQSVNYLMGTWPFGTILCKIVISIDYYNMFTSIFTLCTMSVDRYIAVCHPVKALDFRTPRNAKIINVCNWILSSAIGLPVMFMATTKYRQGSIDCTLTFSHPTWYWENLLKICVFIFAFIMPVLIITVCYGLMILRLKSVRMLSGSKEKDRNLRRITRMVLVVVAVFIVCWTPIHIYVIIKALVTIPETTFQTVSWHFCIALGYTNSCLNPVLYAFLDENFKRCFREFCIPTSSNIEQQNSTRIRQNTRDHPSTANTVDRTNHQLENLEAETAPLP
Chain of DNA damage-inducible transcript 3 protein (P35639 whole entry): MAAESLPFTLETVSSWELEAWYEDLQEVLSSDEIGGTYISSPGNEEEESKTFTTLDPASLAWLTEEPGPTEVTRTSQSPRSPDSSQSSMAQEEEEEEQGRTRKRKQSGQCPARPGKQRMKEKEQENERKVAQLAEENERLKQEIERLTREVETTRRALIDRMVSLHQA
Chain of Sphingosine 1-phosphate receptor 4 (O95977 whole entry): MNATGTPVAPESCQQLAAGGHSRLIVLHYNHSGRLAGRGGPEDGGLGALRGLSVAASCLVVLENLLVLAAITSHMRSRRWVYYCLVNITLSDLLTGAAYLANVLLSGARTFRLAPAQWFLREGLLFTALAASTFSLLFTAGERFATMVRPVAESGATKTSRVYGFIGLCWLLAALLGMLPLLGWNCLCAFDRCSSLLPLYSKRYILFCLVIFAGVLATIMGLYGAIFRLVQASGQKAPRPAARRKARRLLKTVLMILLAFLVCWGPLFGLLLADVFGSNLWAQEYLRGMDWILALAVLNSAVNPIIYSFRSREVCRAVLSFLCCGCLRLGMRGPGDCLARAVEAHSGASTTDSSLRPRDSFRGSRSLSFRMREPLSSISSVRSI
Chain of Sphingosine 1-phosphate receptor 1 (P21453 whole entry): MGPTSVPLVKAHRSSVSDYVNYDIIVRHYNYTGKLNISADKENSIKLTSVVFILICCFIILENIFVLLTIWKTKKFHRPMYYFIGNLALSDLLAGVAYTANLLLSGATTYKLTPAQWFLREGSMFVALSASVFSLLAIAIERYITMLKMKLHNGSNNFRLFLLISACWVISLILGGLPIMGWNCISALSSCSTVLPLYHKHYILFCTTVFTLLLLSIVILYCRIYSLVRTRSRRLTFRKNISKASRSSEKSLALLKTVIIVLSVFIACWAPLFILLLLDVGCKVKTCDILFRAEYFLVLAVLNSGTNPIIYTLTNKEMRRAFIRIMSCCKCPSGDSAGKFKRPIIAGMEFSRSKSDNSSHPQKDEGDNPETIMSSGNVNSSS
Chain of Delta-type opioid receptor (P41143 whole entry): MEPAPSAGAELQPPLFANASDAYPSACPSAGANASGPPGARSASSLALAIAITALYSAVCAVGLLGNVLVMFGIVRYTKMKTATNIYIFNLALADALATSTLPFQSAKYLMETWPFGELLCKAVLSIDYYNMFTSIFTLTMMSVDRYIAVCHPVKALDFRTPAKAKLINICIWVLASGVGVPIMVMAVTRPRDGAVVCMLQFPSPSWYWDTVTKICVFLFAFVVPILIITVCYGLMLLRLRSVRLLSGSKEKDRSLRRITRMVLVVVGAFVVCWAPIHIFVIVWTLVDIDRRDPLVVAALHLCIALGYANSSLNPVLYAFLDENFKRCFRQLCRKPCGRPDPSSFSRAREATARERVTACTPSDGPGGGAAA

EC50 [1]: > 49.8 µM (inactive)
EC50 [2]: > 49.8 µM (not active)
Structure (SMILES): CC(C)c1cc(C(=O)OCC(=O)NC(=O)NCc2ccco2)c(O)c(C(C)C)c1

IC50 [3]: 11.4 µM (active)
IC50 [4]: 94.9 µM (active)
Structure (SMILES): CN[C@@H](C)C(=O)N[C@H](C(=O)N1CCC[C@H]1C(=O)Nc1ccc2ncccc2c1)C(C)C

EC50 (Cannabinoid receptor 2 [5]): > 32 µM (inactive)
IC50 (Cannabinoid receptor 2 [6]): > 32 µM (inactive)
IC50 [7]: 1.44 µM (active)
EC50 [8]: > 32 µM (inactive)
IC50 [9]: > 32 µM (inactive)
IC50 [10]: 0.869 µM (active)
EC50 (Cannabinoid receptor 1 [11]): > 32 µM (inactive)
IC50 (Cannabinoid receptor 1 [12]): 24.1 µM (inactive)
Structure (SMILES): Cc1cccc(-c2cc(C(=O)Nc3sc(C)c(C)c3C(N)=O)c3ccccc3n2)c1

Structure (SMILES): Cc1ccc2[nH]c(/C(C#N)=C\c3ccc(N4CCCCC4)c([N+](=O)[O-])c3)nc2c1
EC50 [13]: 22 µM (active)
IC50 (Estrogen receptor): 4.23 µM (active)
EC50 [14]: 2 µM (active)
IC50 [15]: 2.45 µM (active)
EC50 [16]: 19.4 µM (active)
EC50 [17]: > 60 µM (inconclusive)
IC50 (Coagulation factor XII): 1.02 µM (active)

IC50 [18]: > 20 µM (inactive)
IC50 [19]: > 20 µM (inactive)
Structure (SMILES): Cc1ccc(S(=O)(=O)NCc2cccc(C(=O)NCCN(Cc3ccccc3)C(C)C)c2)cc1

IC50 [20]: > 32 µM (inactive)
EC50 (Cannabinoid receptor 2 [21]): > 32 µM (inactive)
EC50 [22]: > 32 µM (inactive)
EC50 (Cannabinoid receptor 1 [23]): > 32 µM (inactive)
EC50 [24]: > 32 µM (inactive)
IC50 (Cannabinoid receptor 1 [25]): > 32 µM (inactive)
IC50 (Cannabinoid receptor 2 [26]): > 32 µM (inactive)
Structure (SMILES): CCN(CC)S(=O)(=O)c1ccc(N2CCC(C)CC2)c(C(=O)N2CCN(c3ccccc3)CC2)c1

EC50 [27]: > 32 µM (inactive)
EC50 [28]: 3.04 µM (active)
EC50 (Mu-type opioid receptor): > 32 µM (inactive)
EC50 [29]: 1.73 µM (active)
Structure (SMILES): Fc1ccc(CSc2nnc(-c3ccccn3)n2Cc2cccs2)c(F)c1F

Structure (SMILES): Cc1ccc(COc2ccc(Br)cc2/C=N/O)cc1
AC50 [30]: 6.11 µM (active)
Absolute IC50 (CHOP) [31]: 10 µM
